From patent publication US20190169134A1, “NOVEL CLASS OF QUINOLONE HETEROCYCLIC AROMATIC MOLECULES FOR CANCER TREATMENT” (RenoTarget Therapeutics, Inc., priority 2016, published 2019)

Key:
Format in all cases: cell-based, human
PD-L1 = assay: qRT-PCR expression of PD-L1 in HCC827-P cells; conditions: 1 μM, 24 hrs
Experimental: FIG. 11 depicts the effects of Reno647 on expression of PD-L1 in HCC827-P and HCC827-TR cells. HCC827-P and HCC827-TR cells at exponential growth phase were exposed to indicated concentration of Reno647 for 24 hrs. Total cellular RNA was extracted and cDNA was prepared followed by qRT-PCR using specific probes for PD-L1 and GAPDH (internal control) as described in the section of Materials and Methods. Tgene ΔCt value was normalized for GAPDH by calculating ΔCt=Ctgene−CtGAPDH per sample.
HCC827 P or other indicated cells at exponential growth phase were treated with indicated concentrations of compounds for 24 hours. Total cellular RNA was prepared from lysed tumor cells using an RNA Purification kit (ThermoFisher Scientific). The first-strand of cDNA was synthesized using a High Capacity cDNA reverse transcription kit (ThermoFisher Scientific) in PTC-100 Peltier Thermal Cycler PCR. The resultant cDNA (0.5-1 μL) was used in a 10 μl reaction by using Taqman Universal PCR Master Mix (ThermoFisher Scientific). The pre-designed primers and probe were purchased from Life Technologies and used for qPCR. Human GAPDH was used as an internal control. qPCR was performed using Applied Biosystems StepOne and StepOnePlus Real-Time PCR Systems according manufacturer's instructions. An initial PCR denaturation step was performed at 95° C. for 20 seconds. […]

ACHN = assay: Cell growth inhibition by SRB method; conditions: Homo sapiens, ACHN, 72 hrs exposure
Excerpt: (§1) Six human cancer cell lines have been used to evaluate effects of the compounds on proliferation of cancer cells. These cell lines include HCC827-P (or HCC827 parent cells), human non-small lung cancer cells, Parent NSCLC HCC827 cell line (which harbors EGFR gene amplification, Exon 19 (E19) deletion, and Exon 21 mutation (Wang, Ramakrishnan et al. 2010), and is an EGFRi sensitive cell line (Kim, Kim et al. 2010)); HCC827-TR16 (Tarceva-resistant HCC727 cell line), HCC827-OR16 (AZD9291-resistant HCC727 cell line), LNCaP (human prostate cancer cells—a hormonal-therapy sensitive cell line (Wang, Liu et al. 1997)); 22RV1 (human prostate cancer cells—a hormonal-therapy resistant cell line (Sramkoski, Pretlow et al. 1999)); and ACHN (human renal adenocarcinoma cells (Park, Jung et al. 2003)). LNCaP cells and 22RV1 cells were purchased from the American Type Culture Collection (Rockville, Md.) and others were gifts of friends.
(§2) All cell lines were maintained in RPMI-1640 (GIBCO, Gaithersburg, Md.) with 10% heat-inactivated bovine serum (FBS) (Wang, Ossowski et al. 2004).
(§3) Sulforhodamine B (SRB) was used to estimate cell growth as described previously (Skehan, Storeng et al. 1990). Briefly, cells grown exponentially were aliquoted into 96-well plates at a density of 2,500 to 5,000 cells/200 μl per well in RPMI 1640 medium containing 10% FBS. After twenty-four hours, the cells were exposed to indicated concentrations of tested compounds for 72 hrs or otherwise as indicated. The cells were then fixed with 10% trichloride acetic acid for 2 h at 4° C. The 10% trichloride acetic acid was removed, and the dishes were washed 5 times with tape water, and air-dried. The fixed and dried cells were then stained with 0.4% SRB in 1% acetic acid for 25 min, and the dishes were washed 5 times with 1% acetic acid and air-dried overnight. 200 μl of 10 mM of Tris buffer (pH 10.0) were added, and the dishes were rotated to completely dissolve the color. Absorbance at 570 nm, with a reference wavelength 690 nm, was measured on a 96-well microplate reader (SPECTRO Star^Nano, BMG Labtech). Mean, standard deviation (SD) and the percent of growth inhibition at each concentration point of the treatment were calculated. The percent of growth inhibition as defined as (1−T/C)×100 where T is the mean of the absorbance at 570 nm from the treatment, and C from control (drug vehicle only). IC50 was calculated using Sigma-plot software by regression of growth-concentration curve from each drug treatment.

22RV1 = assay: Cell growth inhibition by SRB method; conditions: Homo sapiens, 22Rv1, 72 h, 72 hrs exposure, SRB
Excerpt: as §1, §2, §3

HCC827-P = assay: qRT-PCR expression of Caspase 3, Caspase 9 and p21; conditions: 24 h
Experimental: FIG. 10 depicts the effect of Reno647 on expressions of Caspase 3, Caspase 9 and p21 in HCC827-P and on Box, Bcl2, p53 and p21 in HCC827-OR16 cells. […] Total cellular RNA was extracted and cDNA was prepared followed by qRT-PCR using specific probes as described in the section of Materials and Methods. Tgene ΔCt value was normalized for GAPDH by calculating ΔCt=Ctgene−CtGAPDH per sample.
HCC827 P or other indicated cells at exponential growth phase were treated with indicated concentrations of compounds for 24 hours. Total cellular RNA was prepared from lysed tumor cells using an RNA Purification kit (ThermoFisher Scientific). The first-strand of cDNA was synthesized using a High Capacity cDNA reverse transcription kit (ThermoFisher Scientific) in PTC-100 Peltier Thermal Cycler PCR. The resultant cDNA (0.5-1 μL) was used in a 10 μl reaction by using Taqman Universal PCR Master Mix (ThermoFisher Scientific). The pre-designed primers and probe were purchased from Life Technologies and used for qPCR. Human GAPDH was used as an internal control. qPCR was performed using Applied Biosystems StepOne and StepOnePlus Real-Time PCR Systems according manufacturer's instructions. An initial PCR denaturation step was performed at 95° C. for 20 seconds. The general cycling stage for qPCR were as follows: denaturation at 95° C. for 1 second, annealing and extension at 60° C. for 20 seconds, repeat for 40 cycles. Tgene ΔCt value was normalized for GAPDH by calculating ΔCt=Ctgene−CtGAPDH per sample.

[1] = system: HCC827 P and HCC827 TR cells; assay: Reno647/Carboplatin combination, median effects (SRB, CalcuSyn)
Experimental: As described in Example 2.1. Two cell lines, HCC827-P and HCC827-TR (Tarceva-resistant HCC727 cells-an EGFRi resistant cell line with MET amplification) (Wang, Pursell et al. 2013) were used in the combination study. Exponentially growing HC[…] and HCC827-TR cells were seeded into 96-wells dishes at density of 3,000 cells per well. Twenty-four hours later, the cells were exposed concurrently to serial dilution of Reno647 or Carboplatin or Camptothecin alone or in combination at a ratio of 1:50 with Carboplatin or at ratio 1:1 with Camptothecin for 3 days. Reno647 were concurrently and sequentially with paclitaxel (Taxol) at ratio of 200:1 for 6 days. For sequential exposure, the cells were treated with Reno647 for 3 days, after removal of the drug containing medium, the cells were treated with Taxol for additional 3 days, or the cells were treated by Taxol first followed by the treatment with Reno 647. After incubation for 6 days, the cell growth was measured by SRB as described previously in Example 2.1 section, and the percentages of inhibition (1-T/C) % were calculated, and data were analyzed by a PC program, CalcuSyn, Biosoft (edited by T.-C. Chou, Memorial Sloan-Kettering Cancer Center, New York, and M. P. Hayball, at Cambridge, UK, 1996). The computer-calculated combination index (CI) was used to judge the outcomes of a combination: […] It has long been accepted that chemotherapy provided some benefit for patients with non-small-cell lung cancer (NSCLC) in terms of quality of life and symptomatology as well as modest improvements in survival. […] Cell growth was determined by SRB as described above.

C#Cc1cccc(Nc2ncnc3cc(OCCOC)c(NC(=O)c4ccc(F)c([N+](=O)[O-])c4)cc23)c1 [Reno647, 4-Fluoro-N-[4-(3-ethynyl-phenylamino)-7-(2-methoxy-ethoxy)-quinazolin-6-yl]-3-nitro-benzamide]
reduction of PD-L1 expression (PD-L1): Over 93% | IC50 (ACHN): 1250 nM | IC50 (22RV1): ~500 nM | p21 expression (HCC827-P; q-RT-PCR): significant induction | Caspase 3 expression (HCC827-P; qRT-PCR): moderate increase | Caspase 9 expression (HCC827-P; qRT-PCR): significant and concentration-dependent induction | dose reduction in combination ([1]; Reno647:Carboplatin 1:50): > 10 fold | median effects, two drugs combined ([1]; Reno647:Carboplatin 1:50, concurrent, cell line not stated): 0.067 µM | median effects, drug alone ([1]; single agent, cell line not stated): 0.697 µM
